Assays:
[1] = target: Aldo-keto reductase family 1 member B1 (Rattus norvegicus, UniProt P07943); assay: biochemical; type: tissue-based, Lens of camera-type eye;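 note: inhibition of aldose reductase enzyme activity, measured with DL-glyceraldehyde as the substrate; in other assays of this panel Not Active means under 50% inhibition at 10 µM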
[2] = DRUGMATRIX: Calcium Channel Type L, Dihydropyridine radioligand binding (ligand: [3H] Nitrendipine); type: cell membranes, Rattus norvegicus, Wistar, Cerebral cortex, Membrane; conditions: Not Active = under 50% inhibition at 10 µM
[3] = target: Vascular endothelial growth factor receptor 1 (Homo sapiens, UniProt P17948); assay: biochemical; type: cell-based, HUVEC; note: in other assays of this panel Not Active means under 50% inhibition at 10 µM
D(1A) dopamine receptor = D(1A) dopamine receptor (Homo sapiens, UniProt P21728); assay: DRUGMATRIX: Dopamine D1 radioligand binding (ligand: [3H] SCH-23390); type: cell membranes, CHO, Membrane; conditions: Not Active = under 50% inhibition at 10 µM
[4] = target: T1, Cysteinyl leukotriene receptor 1 (Homo sapiens, UniProt Q9Y271); type: cell membranes, Membrane; conditions: cho-k1; note: in other assays of this panel Not Active means under 50% inhibition at 10 µM
T1 sequence (Q9Y271 whole entry): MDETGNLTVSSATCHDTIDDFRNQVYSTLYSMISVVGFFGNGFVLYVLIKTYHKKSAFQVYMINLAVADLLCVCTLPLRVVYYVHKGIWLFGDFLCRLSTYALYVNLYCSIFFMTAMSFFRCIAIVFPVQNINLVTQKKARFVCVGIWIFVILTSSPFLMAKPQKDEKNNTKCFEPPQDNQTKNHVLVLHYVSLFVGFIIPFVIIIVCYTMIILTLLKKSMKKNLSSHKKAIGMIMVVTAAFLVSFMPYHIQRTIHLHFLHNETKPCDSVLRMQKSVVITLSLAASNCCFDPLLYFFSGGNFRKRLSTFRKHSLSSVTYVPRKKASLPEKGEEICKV

Interstitial collagenase = target: T2, Interstitial collagenase (Homo sapiens, UniProt P03956); type: tissue-based, Rheumatoid synovial fibroblasts;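 note: MMP-1 enzyme inhibition assay using a peptide substrate; in other assays of this panel Not Active means under 50% inhibition at 10 µM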
T2 sequence (P03956 whole entry): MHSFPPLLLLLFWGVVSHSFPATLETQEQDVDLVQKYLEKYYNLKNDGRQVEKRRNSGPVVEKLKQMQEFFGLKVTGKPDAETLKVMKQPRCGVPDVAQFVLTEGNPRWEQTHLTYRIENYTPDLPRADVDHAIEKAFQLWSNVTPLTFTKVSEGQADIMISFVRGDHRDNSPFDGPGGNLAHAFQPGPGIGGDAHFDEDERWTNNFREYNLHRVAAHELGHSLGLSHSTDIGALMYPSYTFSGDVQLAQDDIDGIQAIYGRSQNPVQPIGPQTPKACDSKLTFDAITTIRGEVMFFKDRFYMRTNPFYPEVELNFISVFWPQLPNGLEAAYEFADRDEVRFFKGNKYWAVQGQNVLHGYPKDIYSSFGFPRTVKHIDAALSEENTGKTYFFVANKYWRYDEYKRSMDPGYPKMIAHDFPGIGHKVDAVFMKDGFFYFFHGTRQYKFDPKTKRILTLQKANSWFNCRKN

Sequence of Vascular endothelial growth factor receptor 1 (P17948 whole entry): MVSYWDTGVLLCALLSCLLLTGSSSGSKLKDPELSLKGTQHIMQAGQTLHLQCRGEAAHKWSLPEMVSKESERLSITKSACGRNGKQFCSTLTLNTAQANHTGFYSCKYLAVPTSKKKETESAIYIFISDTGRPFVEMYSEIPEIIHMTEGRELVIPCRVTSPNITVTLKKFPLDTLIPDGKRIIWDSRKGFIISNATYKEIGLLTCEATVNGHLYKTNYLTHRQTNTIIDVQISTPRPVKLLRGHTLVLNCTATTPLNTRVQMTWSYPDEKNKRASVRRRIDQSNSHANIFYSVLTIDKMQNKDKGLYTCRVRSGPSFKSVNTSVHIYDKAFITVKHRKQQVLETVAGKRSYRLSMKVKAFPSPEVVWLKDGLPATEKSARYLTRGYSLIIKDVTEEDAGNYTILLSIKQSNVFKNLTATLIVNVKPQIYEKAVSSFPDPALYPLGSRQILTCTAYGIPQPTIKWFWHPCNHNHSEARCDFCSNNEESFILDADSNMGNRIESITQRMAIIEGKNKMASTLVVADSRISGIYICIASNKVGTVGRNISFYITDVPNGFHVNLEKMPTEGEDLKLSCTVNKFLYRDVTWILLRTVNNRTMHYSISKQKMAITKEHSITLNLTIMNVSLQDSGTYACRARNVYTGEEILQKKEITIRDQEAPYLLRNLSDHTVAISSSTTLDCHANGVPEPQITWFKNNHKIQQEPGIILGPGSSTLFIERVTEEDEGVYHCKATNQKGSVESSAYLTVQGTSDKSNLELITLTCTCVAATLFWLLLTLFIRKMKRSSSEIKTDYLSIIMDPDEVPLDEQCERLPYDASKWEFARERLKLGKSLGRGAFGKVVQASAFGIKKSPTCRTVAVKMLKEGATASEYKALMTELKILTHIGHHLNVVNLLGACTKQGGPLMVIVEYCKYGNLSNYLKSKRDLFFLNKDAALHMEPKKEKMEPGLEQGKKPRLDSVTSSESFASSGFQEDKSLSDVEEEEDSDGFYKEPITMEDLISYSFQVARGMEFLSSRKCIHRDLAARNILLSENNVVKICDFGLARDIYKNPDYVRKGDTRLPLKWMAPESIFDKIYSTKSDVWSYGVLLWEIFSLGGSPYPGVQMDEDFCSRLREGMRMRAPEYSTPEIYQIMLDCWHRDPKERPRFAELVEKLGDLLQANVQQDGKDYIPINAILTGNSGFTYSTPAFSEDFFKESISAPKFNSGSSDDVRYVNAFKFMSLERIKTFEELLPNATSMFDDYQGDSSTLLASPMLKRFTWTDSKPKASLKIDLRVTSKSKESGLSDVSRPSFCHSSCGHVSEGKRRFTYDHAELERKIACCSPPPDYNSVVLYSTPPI
Sequence of D(1A) dopamine receptor (P21728 whole entry): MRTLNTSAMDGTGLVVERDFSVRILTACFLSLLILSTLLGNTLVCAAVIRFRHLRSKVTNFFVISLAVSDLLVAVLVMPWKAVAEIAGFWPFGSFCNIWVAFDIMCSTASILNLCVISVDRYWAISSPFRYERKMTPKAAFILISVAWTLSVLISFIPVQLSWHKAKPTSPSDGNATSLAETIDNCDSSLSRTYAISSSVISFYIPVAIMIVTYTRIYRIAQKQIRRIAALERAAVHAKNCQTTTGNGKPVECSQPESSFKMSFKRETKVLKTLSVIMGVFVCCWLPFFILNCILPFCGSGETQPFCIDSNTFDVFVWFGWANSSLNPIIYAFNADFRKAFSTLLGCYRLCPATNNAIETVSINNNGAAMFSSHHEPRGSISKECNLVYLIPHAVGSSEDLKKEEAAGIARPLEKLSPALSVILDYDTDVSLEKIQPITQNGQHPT

Compound: INSULIN HUMAN
- IC50 [1]: Not Active
- Ki [1]: Not Active
- IC50 [2]: Not Active
- Ki [2]: Not Active
- IC50 ([3]; huvec): Not Active
- Ki ([3]; huvec): Not Active
- IC50 (D(1A) dopamine receptor; cho): Not Active
- Ki (D(1A) dopamine receptor; cho): Not Active
- IC50 [4]: Not Active
- Ki [4]: Not Active
- IC50 (Interstitial collagenase): Not Active
- Ki (Interstitial collagenase): Not Active

Compound: CCOC(=O)[C@H](CCc1ccccc1)N[C@@H](C)C(=O)N1CCC[C@H]1C(=O)O
- IC50 [1]: Not Active
- IC50 [2]: Not Active
- Ki [2]: Not Active
- IC50 ([3]; huvec): Not Active
- IC50 (D(1A) dopamine receptor; cho): Not Active
- IC50 [4]: Not Active
- IC50 (Interstitial collagenase): Not Active

Compound: O=C(O)c1cc(=O)c2c(OCC(O)COc3cccc4oc(C(=O)O)cc(=O)c34)cccc2o1 [CROMOLYN]
- IC50 [1]: Not Active
- IC50 [2]: Not Active
- Ki [2]: Not Active
- IC50 ([3]; huvec): Not Active
- IC50 (D(1A) dopamine receptor; cho): Not Active
- IC50 [4]: Not Active
- IC50 (Interstitial collagenase): Not Active

Compound: Cc1cccc(Nc2cc(Cl)nc(SCC(=O)O)n2)c1C [PIRINIXIC ACID]
- IC50 ([1]; read-out: IC50): 2.82 µM
- IC50 [2]: Not Active
- Ki [2]: Not Active
- IC50 ([3]; huvec): Not Active
- IC50 (D(1A) dopamine receptor; cho): Not Active
- IC50 [4]: Not Active
- IC50 (Interstitial collagenase): Not Active

Compound: CC[C@H]1OC(=O)[C@H](C)[C@@H](O[C@H]2C[C@@](C)(OC)[C@@H](O)[C@H](C)O2)[C@H](C)[C@@H](O[C@@H]2O[C@H](C)C[C@H](N(C)C)[C@H]2O)[C@](C)(OC)C[C@@H](C)C(=O)[C@H](C)[C@@H](O)[C@]1(C)O [CLARITHROMYCIN]
- IC50 [1]: Not Active
- IC50 [2]: Not Active
- Ki [2]: Not Active
- IC50 ([3]; huvec): Not Active
- IC50 (D(1A) dopamine receptor; cho): Not Active
- IC50 [4]: Not Active
- IC50 (Interstitial collagenase): Not Active

Compound: CCc1oc2ccccc2c1C(=O)c1cc(Br)c(O)c(Br)c1 [BENZBROMARONE]
- IC50 [1]: Not Active
- IC50 [2]: Not Active
- Ki [2]: Not Active
- IC50 ([3]; huvec): Not Active
- IC50 (D(1A) dopamine receptor; cho): Not Active
- IC50 [4]: Not Active
- IC50 (Interstitial collagenase): Not Active

Compound: CC[C@]1(O)CC[C@H]2[C@@H]3CCC4=CCCC[C@@H]4[C@H]3CC[C@@]21C
- IC50 [1]: Not Active
- IC50 [2]: Not Active
- Ki [2]: Not Active
- IC50 ([3]; huvec): Not Active
- IC50 (D(1A) dopamine receptor; cho): Not Active
- IC50 [4]: Not Active
- IC50 (Interstitial collagenase): Not Active

Compound: CC(C)(Oc1ccc(C2CC2(Cl)Cl)cc1)C(=O)O (stereo not drawn) [CIPROFIBRATE]
- IC50 [1]: Not Active
- IC50 [2]: Not Active
- Ki [2]: Not Active
- IC50 ([3]; huvec): Not Active
- IC50 (D(1A) dopamine receptor; cho): Not Active
- IC50 [4]: Not Active
- IC50 (Interstitial collagenase): Not Active

Compound: CO[C@H]1[C@@H](O)[C@H](N)[C@@H](O[C@H]2O[C@H]([C@H](C)N)CC[C@H]2N)[C@H](O)[C@@H]1N(C)C(=O)CN [ASTROMICIN]
- IC50 [1]: Not Active
- IC50 [2]: Not Active
- Ki [2]: Not Active
- IC50 ([3]; huvec): Not Active
- IC50 (D(1A) dopamine receptor; cho): Not Active
- IC50 [4]: Not Active
- IC50 (Interstitial collagenase): Not Active

Compound: Clc1cc2c(cc1Cl)Oc1cc(Cl)c(Cl)cc1O2 [2,3,7,8-TETRACHLORODIBENZO-P-DIOXIN]
- IC50 [1]: Not Active
- IC50 [2]: Not Active
- Ki [2]: Not Active
- IC50 ([3]; read-out: IC50): 0.00269 µM
- Ki ([3]; read-out: Ki): 0.000697 µM
- IC50 (D(1A) dopamine receptor; cho): Not Active
- IC50 [4]: Not Active
- IC50 (Interstitial collagenase): Not Active

Compound: CNC(=C[N+](=O)[O-])NCCSCc1csc(CN(C)C)n1 [NIZATIDINE]
- IC50 [1]: Not Active
- IC50 [2]: Not Active
- Ki [2]: Not Active
- IC50 ([3]; huvec): Not Active
- IC50 (D(1A) dopamine receptor; cho): Not Active
- IC50 [4]: Not Active
- IC50 (Interstitial collagenase): Not Active

Compound: N=C(N)N/N=C/c1c(Cl)cccc1Cl [GUANABENZ]
- IC50 [1]: Not Active
- IC50 [2]: Not Active
- Ki [2]: Not Active
- IC50 ([3]; huvec): Not Active
- IC50 (D(1A) dopamine receptor; cho): Not Active
- IC50 [4]: Not Active
- IC50 (Interstitial collagenase): Not Active

Compound: CC(C)C[C@H]1C(=O)N2CCC[C@H]2[C@]2(O)O[C@](NC(=O)[C@@H]3C=C4c5cccc6[nH]c(Br)c(c56)C[C@H]4N(C)C3)(C(C)C)C(=O)N12 [BROMOCRIPTINE]
- IC50 [1]: Not Active
- IC50 [2]: Not Active
- Ki [2]: Not Active
- IC50 ([3]; huvec): Not Active
- IC50 (D(1A) dopamine receptor; read-out: IC50): 2.89 µM
- Ki (D(1A) dopamine receptor; read-out: Ki): 1.44 µM
- IC50 [4]: Not Active
- IC50 (Interstitial collagenase): Not Active

Compound: COc1ccc2cc(CCC(C)=O)ccc2c1 [NABUMETONE]
- IC50 [1]: Not Active
- IC50 [2]: Not Active
- Ki [2]: Not Active
- IC50 ([3]; huvec): Not Active
- IC50 (D(1A) dopamine receptor; cho): Not Active
- IC50 [4]: Not Active
- IC50 (Interstitial collagenase): Not Active

Compound: CC(C(=O)O)c1ccc(CC2CCCC2=O)cc1 (stereo not drawn) [LOXOPROFEN]
- IC50 [1]: Not Active
- IC50 [2]: Not Active
- Ki [2]: Not Active
- IC50 ([3]; huvec): Not Active
- IC50 (D(1A) dopamine receptor; cho): Not Active
- IC50 [4]: Not Active
- IC50 (Interstitial collagenase): Not Active

Compound: CCCCCC[C@H]1C(=O)O[C@H](C)[C@H](NC(=O)c2cccc(NC=O)c2O)C(=O)O[C@@H](C)[C@@H]1OC(=O)CC(C)C [ANTIMYCIN A]
- IC50 [1]: Not Active
- IC50 [2]: Not Active
- Ki [2]: Not Active
- IC50 ([3]; huvec): Not Active
- IC50 (D(1A) dopamine receptor; cho): Not Active
- IC50 [4]: Not Active
- IC50 (Interstitial collagenase): Not Active

Compound: Cc1cnc(C(=O)NCCc2ccc(S(=O)(=O)NC(=O)NC3CCCCC3)cc2)cn1 [GLIPIZIDE]
- IC50 [1]: Not Active
- IC50 [2]: Not Active
- Ki [2]: Not Active
- IC50 ([3]; huvec): Not Active
- IC50 (D(1A) dopamine receptor; cho): Not Active
- IC50 [4]: Not Active
- IC50 (Interstitial collagenase): Not Active

Compound: COc1ccc(Cc2nccc3cc(OC)c(OC)cc23)cc1OC [PAPAVERINE]
- IC50 [1]: Not Active
- IC50 [2]: Not Active
- Ki [2]: Not Active
- IC50 ([3]; huvec): Not Active
- IC50 (D(1A) dopamine receptor; cho): Not Active
- Ki [4]: Not Active
- IC50 (Interstitial collagenase): Not Active

Compound: O=c1cc(-c2ccccc2)oc2ccc3ccccc3c12 [BETA-NAPHTHOFLAVONE]
- IC50 [1]: Not Active
- IC50 [2]: Not Active
- Ki [2]: Not Active
- IC50 ([3]; huvec): Not Active
- IC50 (D(1A) dopamine receptor; cho): Not Active
- IC50 [4]: Not Active
- IC50 (Interstitial collagenase): Not Active

Compound: CC(=O)O[C@]1(C(C)=O)CC[C@H]2[C@@H]3C=C(Cl)C4=CC(=O)[C@@H]5C[C@@H]5[C@]4(C)[C@H]3CC[C@@]21C [CYPROTERONE ACETATE]
- IC50 [1]: Not Active
- IC50 [2]: Not Active
- Ki [2]: Not Active
- IC50 ([3]; huvec): Not Active
- IC50 (D(1A) dopamine receptor; cho): Not Active
- IC50 [4]: Not Active
- IC50 (Interstitial collagenase): Not Active

Compound: CCN[C@@H](C)Cc1cccc(C(F)(F)F)c1 [DEXFENFLURAMINE]
- IC50 [1]: Not Active
- IC50 [2]: Not Active
- Ki [2]: Not Active
- IC50 ([3]; huvec): Not Active
- IC50 (D(1A) dopamine receptor; cho): Not Active
- IC50 [4]: Not Active
- IC50 (Interstitial collagenase): Not Active

Compound: Nn1nnc2ccccc21
- IC50 [1]: Not Active
- IC50 [2]: Not Active
- Ki [2]: Not Active
- IC50 ([3]; huvec): Not Active
- IC50 (D(1A) dopamine receptor; cho): Not Active
- IC50 [4]: Not Active
- IC50 (Interstitial collagenase): Not Active

Compound: O=C(O)Cc1ccc(-c2ccccc2)cc1 [FELBINAC]
- IC50 [1]: Not Active
- IC50 [2]: Not Active
- Ki [2]: Not Active
- IC50 ([3]; huvec): Not Active
- IC50 (D(1A) dopamine receptor; cho): Not Active
- IC50 [4]: Not Active
- IC50 (Interstitial collagenase): Not Active

— ChEMBL document CHEMBL1909046, “DrugMatrix in vitro pharmacology data”
